Data from patent US20220160686A1, “MACROCYCLIC AZOLOPYRIDINE DERIVATIVES AS EED AND PRC2 MODULATORS” (Fulcrum Therapeutics, Inc., priority 2019, published 2022).

What was measured:
[1] = biological target: T1, biotinylated AVI-tagged EED (76-441) (Homo sapiens, UniProt O75530); experiment: EED binding SPR assay; details: 1:1 binding model; read-out: KD, equilibrium dissociation constant as measured by surface plasmon resonance (SPR)
T1 construct: GST (N, cleaved yes); made in house; host or cells: E. coli BL21(DE3), co-expressed with pGro7
T1 sequence (O75530 76-441 limits assumed): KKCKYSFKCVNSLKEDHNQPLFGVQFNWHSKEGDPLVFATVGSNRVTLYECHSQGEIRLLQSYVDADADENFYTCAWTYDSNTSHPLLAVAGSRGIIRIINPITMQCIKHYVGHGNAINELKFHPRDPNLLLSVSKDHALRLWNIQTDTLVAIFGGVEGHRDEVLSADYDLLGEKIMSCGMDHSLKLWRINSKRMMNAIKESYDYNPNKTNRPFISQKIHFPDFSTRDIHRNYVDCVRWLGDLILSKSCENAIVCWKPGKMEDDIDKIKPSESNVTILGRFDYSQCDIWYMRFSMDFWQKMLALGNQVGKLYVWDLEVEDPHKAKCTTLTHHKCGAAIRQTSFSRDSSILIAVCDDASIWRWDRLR
Summary of the method: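 Biotinylated AVI-EED(76-441) from E. coli was captured on Biotin CAPture chips (2200–2400 RU) in 10 mM HEPES pH 7.4, 150 mM NaCl, 0.05% Tween 20 and 2% DMSO. Compounds were run at 7 concentrations (3-fold dilutions) with 90 s association and 180 s dissociation, chip at 25 °C. Data were fitted to a 1:1 binding model.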

EZH2/PRC2 complex = EZH2/PRC2 complex (Homo sapiens, UniProt O75530); experiment: Histone methyltransferase assay (radioisotope-based HotSpot); format: biochemical; details: EZH2/PRC2 complex 10 nM, core histone substrate 0.05 mg/ml, 3H-SAM 1 μM; read-out: IC50, inhibitory effects on the HMT enzyme
EZH2/PRC2 complex, sequence (O75530 whole entry): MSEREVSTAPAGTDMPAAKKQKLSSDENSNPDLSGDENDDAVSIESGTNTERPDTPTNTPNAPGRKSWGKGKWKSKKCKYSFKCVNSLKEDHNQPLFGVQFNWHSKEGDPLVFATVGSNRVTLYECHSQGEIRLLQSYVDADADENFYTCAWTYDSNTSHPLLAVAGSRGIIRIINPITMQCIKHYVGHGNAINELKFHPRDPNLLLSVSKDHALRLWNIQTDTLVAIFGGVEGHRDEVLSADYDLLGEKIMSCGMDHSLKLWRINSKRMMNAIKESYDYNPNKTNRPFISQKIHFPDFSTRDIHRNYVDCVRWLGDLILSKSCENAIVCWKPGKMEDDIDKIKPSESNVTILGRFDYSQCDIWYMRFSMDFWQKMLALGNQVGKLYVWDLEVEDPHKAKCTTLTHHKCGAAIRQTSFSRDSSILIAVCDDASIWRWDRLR
EZH2/PRC2 complex, sequence (Q15910 whole entry partner): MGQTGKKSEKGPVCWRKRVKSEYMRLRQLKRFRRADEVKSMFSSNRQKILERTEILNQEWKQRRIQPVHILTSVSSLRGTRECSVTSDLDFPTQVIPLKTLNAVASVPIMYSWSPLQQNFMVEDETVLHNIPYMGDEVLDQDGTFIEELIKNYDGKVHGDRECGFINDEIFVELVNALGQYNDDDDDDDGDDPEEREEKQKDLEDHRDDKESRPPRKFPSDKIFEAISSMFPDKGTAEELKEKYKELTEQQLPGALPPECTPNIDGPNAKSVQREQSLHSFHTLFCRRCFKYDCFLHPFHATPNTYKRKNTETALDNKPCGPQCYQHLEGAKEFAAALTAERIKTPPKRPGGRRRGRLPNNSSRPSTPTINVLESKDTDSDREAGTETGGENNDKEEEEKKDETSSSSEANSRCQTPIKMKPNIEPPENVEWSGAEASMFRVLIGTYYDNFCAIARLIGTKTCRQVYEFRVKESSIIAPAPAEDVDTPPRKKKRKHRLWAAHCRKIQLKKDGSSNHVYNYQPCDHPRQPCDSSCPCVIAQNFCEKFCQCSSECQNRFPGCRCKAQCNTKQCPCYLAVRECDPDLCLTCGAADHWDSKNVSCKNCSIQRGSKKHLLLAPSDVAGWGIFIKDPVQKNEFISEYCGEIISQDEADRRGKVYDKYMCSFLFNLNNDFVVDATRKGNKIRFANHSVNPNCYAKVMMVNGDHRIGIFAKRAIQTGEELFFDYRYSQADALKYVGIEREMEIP
EZH2/PRC2 complex, sequence (Q15022 whole entry partner): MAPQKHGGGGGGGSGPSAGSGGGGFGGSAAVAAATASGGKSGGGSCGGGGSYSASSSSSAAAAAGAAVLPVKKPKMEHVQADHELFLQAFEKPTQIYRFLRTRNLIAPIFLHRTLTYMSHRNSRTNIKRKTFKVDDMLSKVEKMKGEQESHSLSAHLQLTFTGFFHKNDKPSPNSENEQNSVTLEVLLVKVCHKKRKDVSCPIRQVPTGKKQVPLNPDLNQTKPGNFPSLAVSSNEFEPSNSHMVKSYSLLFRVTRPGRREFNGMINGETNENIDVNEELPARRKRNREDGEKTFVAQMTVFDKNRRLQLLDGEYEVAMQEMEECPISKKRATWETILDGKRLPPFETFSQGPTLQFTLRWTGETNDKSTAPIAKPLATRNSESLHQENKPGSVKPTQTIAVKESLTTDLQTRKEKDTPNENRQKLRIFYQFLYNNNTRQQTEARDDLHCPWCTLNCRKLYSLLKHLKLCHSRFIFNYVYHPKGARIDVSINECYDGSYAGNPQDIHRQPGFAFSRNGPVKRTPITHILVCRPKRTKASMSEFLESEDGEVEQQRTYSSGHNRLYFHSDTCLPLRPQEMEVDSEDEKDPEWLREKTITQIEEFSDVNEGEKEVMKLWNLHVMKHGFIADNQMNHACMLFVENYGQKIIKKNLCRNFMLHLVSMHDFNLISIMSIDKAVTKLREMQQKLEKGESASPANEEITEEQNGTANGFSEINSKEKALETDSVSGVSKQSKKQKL
Description: Effect of compounds of the present disclosure on EZH2/PRC2 complex methyltransferase functional activity was measured using the radioisotope-based HotSpot assay described by Horiuchi, K. Y., et al. Assay Drug Dev Technol. 11(4):227-36 (2013). Briefly, compounds were prepared in a 10-point 3-fold serial dilution in DMSO from a 10 mM stock in ECHO qualified plate using Assist Plus (Integra Biosciences) liquid handler. […] Nanoliter quantities of each compound's concentration series were transferred into the enzyme/substrate mix using (Echo 550, LabCyte Inc. Sunnyvale, Calif.) acoustic dispenser and pre-incubated for 20 min at room temperature. The methylation reaction was initiated by the addition of 1 μl of 5 μM S-Adenosyl-L-[methyl-^3H]methionine (^3H-SAM) and incubated at 30° C. for 1 h. The final concentration of the EZH2/PRC2 complex, core histone substrate and ^3H-SAM were 10 nM, 0.05 mg/ml, and 1 μM respectively. The % activity of test samples were calculated with reference to positive (no compound) and negative (no EZH2/PRC2) controls on the plate using Excel (Microsoft). The resulting values were exported to Prism (GraphPad software) to generate concentration response curves and IC50 values using the four-parameter logistic equation.

Kd [1] [µM]	IC50 (EZH2/PRC2 complex) [µM]	Compound
> 0.05	> 0.5	Cc1ncccc1-c1cc2c(n3cnnc13)NCc1c(F)cccc1COC2 [Compound 6, 12-fluoro-4-(2-methylpyridin-3-yl)-6,8,13,14-tetrahydro-[1,2,4]triazolo[4′,3′:1,6]pyrido[3,2-c]benzo[g][1,5]oxazonine]
0.005 to 0.01	0.025 to 0.05	Cc1ncccc1-c1cc2c(n3cnnc13)NCc1c(F)cccc1CCO2 [Compound 5, 12-fluoro-4-(2-methylpyridin-3-yl)-7,8,13,14-tetrahydro-[1,2,4]triazolo[4′,3′:1,6]pyrido[3,2-b]benzo[f][1,4]oxazonine]
0.01 to 0.05	< 0.025	CC(=O)N1CCC(c2cc3c(n4cnnc24)NCc2c(F)cccc2CCO3)CC1 [Compound 4, 1-(4-(12-fluoro-7,8,13,14-tetrahydro-[1,2,4]triazolo[4′,3′:1,6]pyrido[3,2-b]benzo[f][1,4]oxazonin-4-yl)piperidin-1-yl)ethan-1-one]
0.0025 to 0.005	< 0.025	CN(CC(F)(F)F)C(=O)c1cc2c(n3cnnc13)NCc1c(F)ccc3c1C(CO3)CO2 (centres unmarked) [Example 38]
0.01 to 0.05	0.05 to 0.1	Cc1ncc(-c2cc3c(n4cnnc24)NCc2c(F)cccc2CCO3)c(C)n1 [Compound 14, 4-(2,4-dimethylpyrimidin-5-yl)-12-fluoro-7,8,13,14-tetrahydro-[1,2,4]triazolo[4′,3′:1,6]pyrido[3,2-b]benzo[f][1,4]oxazonine]
0.0025 to 0.005	< 0.025	Fc1ccc2c3c1CNc1c(cc(C4COC4)c4nncn14)OC[C@@H]3CO2 [Compound 12, (S)-12-fluoro-4-(oxetan-3-yl)-7a,8,13,14-tetrahydro-7H-[1,2,4]triazolo[4′,3′:1,6]pyrido[3,2-b]benzofuro[4,3-fg][1,4]oxazonine]
< 0.0025	< 0.025	Cn1nc(C(F)(F)F)cc1-c1cc2c(n3cnnc13)NCc1c(F)ccc3c1[C@H](CO3)CO2 [Example 115]
< 0.0025	< 0.025	CS(=O)(=O)c1ccc(-c2cc3c(n4cnnc24)NCc2c(F)ccc4c2C(CO4)CO3)cc1 (centres unmarked) [Example 36]
< 0.0025	< 0.025	Cn1nc(C(C)(C)C#N)cc1-c1cc2c(n3cnnc13)NCc1c(F)ccc3c1[C@@H](CO3)CO2 [Compound 169, (S)-2-(5-(12-fluoro-7a,8,13,14-tetrahydro-7H-[1,2,4]triazolo[4′,3′:1,6]pyrido[3,2-b]benzofuro[4,3-fg][1,4]oxazonin-4-yl)-1-methyl-1H-pyrazol-3-yl)-2-methylpropanenitrile]
< 0.0025	< 0.025	Cc1ncoc1-c1cc2c(n3cnnc13)NCc1c(F)ccc3c1[C@@H](CO3)CO2 [Compound 189, (S)-12-fluoro-4-(4-methyloxazol-5-yl)-7a,8,13,14-tetrahydro-7H-[1,2,4]triazolo[4′,3′:1,6]pyrido[3,2-b]benzofuro[4,3-fg][1,4]oxazonine]
> 0.05	0.1 to 0.5	c1cc2c3c(c1)OC[C@H]3COc1ccc3nncn3c1NC2 [Compound 11, (S)-7a,8,13,14-tetrahydro-7H-[1,2,4]triazolo[4′,3′:1,6]pyrido[3,2-b]benzofuro[4,3-fg][1,4]oxazonine]
< 0.0025	< 0.025	Fc1cncnc1-c1cc2c(n3cnnc13)NCc1c(F)ccc3c1[C@@H](CO3)CO2 [Compound 164, (S)-12-fluoro-4-(5-fluoropyrimidin-4-yl)-7a,8,13,14-tetrahydro-7H-[1,2,4]triazolo[4′,3′:1,6]pyrido[3,2-b]benzofuro[4,3-fg][1,4]oxazonine]
< 0.0025	< 0.025	COc1ncc(-c2cc3c(n4cnnc24)NCc2c(F)ccc4c2[C@H](CO4)CO3)cn1 [Example 30]
< 0.0025	< 0.025	Cc1cn(-c2cc3c(n4cnnc24)NCc2c(F)ccc4c2[C@@H](CO4)CO3)cn1 [Compound 15, (S)-12-fluoro-4-(4-methyl-1H-imidazol-1-yl)-7a,8,13,14-tetrahydro-7H-[1,2,4]triazolo[4′,3′:1,6]pyrido[3,2-b]benzofuro[4,3-fg][1,4]oxazonine]
< 0.0025	< 0.025	Cc1ncc(-c2cc3c(n4cnnc24)NCc2c(F)ccc4c2[C@@H](CO4)CO3)c(C)n1 [Compound 13, (S)-4-(2,4-dimethylpyrimidin-5-yl)-12-fluoro-7a,8,13,14-tetrahydro-7H-[1,2,4]triazolo[4′,3′:1,6]pyrido[3,2-b]benzofuro[4,3-fg][1,4]oxazonine]
< 0.0025	< 0.025	CC(=O)N1CCC(c2cc3c(n4cnnc24)NCc2cccc4c2[C@@H](CO4)CO3)CC1 [Compound 3, (S)-1-(4-(7a,8,13,14-tetrahydro-7H-[1,2,4]triazolo[4′,3′:1,6]pyrido[3,2-b]benzofuro[4,3-fg][1,4]oxazonin-4-yl)piperidin-1-yl)ethan-1-one]
0.01 to 0.05	< 0.025	Fc1ccc2c3c1CNc1c(cc(Br)c4nncn14)OC[C@@H]3CO2 [Compound 165, (S)-4-bromo-12-fluoro-7a,8,13,14-tetrahydro-7H-[1,2,4]triazolo[4′,3′:1,6]pyrido[3,2-b]benzofuro[4,3-fg][1,4]oxazonine]
< 0.0025	< 0.025	Cn1nccc1-c1cc2c(n3cc(C#N)nc13)NCc1c(F)ccc3c1[C@@H](CO3)CO2 [Compound 172, (S)-5-fluoro-12-(1-methyl-1H-pyrazol-5-yl)-6,7,15,15a-tetrahydro-1H-benzofuro[4,3-fg]imidazo[r,2′:1,6]pyrido[3,2-b][1,4]oxazonine-10-carbonitrile]
< 0.0025	< 0.025	Cn1nccc1-c1cc2c(n3cc(C(N)=O)nc13)NCc1c(F)ccc3c1[C@@H](CO3)CO2 [Compound 175, (S)-5-fluoro-12-(1-methyl-1H-pyrazol-5-yl)-6,7,15,15a-tetrahydro-1H-benzofuro[4,3-fg]imidazo[r,2′:1,6]pyrido[3,2-b][1,4]oxazonine-10-carboxamide]
< 0.0025	< 0.025	Cc1cc(C#N)ccc1-c1cc2c(n3cnnc13)NCc1c(F)ccc3c1[C@H](CO3)CO2 [Example 49]
< 0.0025	< 0.025	COC(=O)N1CCC(c2cc3c(n4cnnc24)NCc2c(F)ccc4c2C(CO4)CO3)CC1 [Compound 16, methyl (S)-4-(12-fluoro-7a,8,13,14-tetrahydro-7H-[1,2,4]triazolo[4′,3′:1,6]pyrido[3,2-b]benzofuro[4,3-fg][1,4]oxazonin-4-yl)piperidine-1-carboxylate]
0.01 to 0.05	0.025 to 0.05	Cc1ncccc1-c1cc2c(n3cc(C(N)=O)nc13)NCc1c(F)ccc3c1[C@@H](CO3)CO2 [Compound 176, (S)-5-fluoro-12-(2-methylpyridin-3-yl)-6,7,15,15a-tetrahydro-1H-benzofuro[4,3-fg]imidazo[r,2′:1,6]pyrido[3,2-b][1,4]oxazonine-10-carboxamide]
< 0.0025	< 0.025	Cc1ncccc1-c1cc2c(n3cnnc13)NCc1cccc3c1[C@H](CO3)CO2 [Compound 1, (15R)-10-(2-methyl-3-pyridyl)-13,17-dioxa-3,5,7,8-tetrazapentacyclo[13.6.1.04,12.05,9.018,22] docosa-1(22),4(12),6,8,10,18,20-heptaene]
< 0.0025	< 0.025	Cc1ncccc1-c1cc2c(n3cc(C#N)nc13)NCc1c(F)ccc3c1[C@@H](CO3)CO2 [Compound 186, (S)-5-fluoro-12-(2-methylpyridin-3-yl)-6,7,15,15a-tetrahydro-1H-benzofuro[4,3-fg]imidazo[1′,2′:1,6]pyrido[3,2-b][1,4]oxazonine-10-carbonitrile]
< 0.0025	< 0.025	Cn1nccc1-c1cc2c(n3cnnc13)NCc1c(F)ccc3c1C(CO3)CO2 (centres unmarked) [Example 17]
0.01 to 0.05	< 0.025	Cn1cc(Cc2cc3c(n4cnnc24)NCc2cccc4c2[C@@H](CO4)CO3)cn1 [Compound 7, (S)-4-((1-methyl-1H-pyrazol-4-yl)methyl)-7a,8,13,14-tetrahydro-7H-[1,2,4]triazolo[4′,3′:1,6]pyrido[3,2-b]benzofuro[4,3-fg][1,4]oxazonine]
< 0.0025	< 0.025	Cn1nc(OC(F)F)cc1-c1cc2c(n3cnnc13)NCc1c(F)ccc3c1[C@@H](CO3)CO2 [Compound 167, (S)-4-(3-(difluoromethoxy)-1-methyl-1H-pyrazol-5-yl)-12-fluoro-7a,8,13,14-tetrahydro-7H-[1,2,4]triazolo[4′,3′:1,6]pyrido[3,2-b]benzofuro[4,3-fg][1,4]oxazonine]
0.005 to 0.01	< 0.025	Cn1cc(Cc2cc3c(n4cnnc24)NCc2c(F)ccc4c2[C@@H](CO4)CO3)cn1 [Compound 10, (S)-12-fluoro-4-((1-methyl-1H-pyrazol-4-yl)methyl)-7a,8,13,14-tetrahydro-7H-[1,2,4]triazolo[4′,3′:1,6]pyrido[3,2-b]benzofuro[4,3-fg][1,4]oxazonine]
